Consider 17 compounds from US20250332173A1, “COMPOUNDS AND METHODS FOR MODULATING NUCLEIC ACID SPLICING” (REMIX THERAPEUTICS INC., priority 2021, published 2025).

Where two headings read alike, the source gives them in different places.

In test [1] the test system is MYB mRNA. Kind of test: RT-qPCR splicing assay, MYB canonical junction (CJ) and alternative junction (AJ) mRNA. The format is cell-based, human. As to conditions: Homo sapiens; for AC50: increase in MYB alternative junction (AJ) mRNA, read-out: MYB AJ AC50. The procedure, abridged: (§1)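 Splicing switches were read by TaqMan RT-qPCR on lysates, quantifying exon-exon junctions of the canonical and alternative-exon isoforms. Lysates came from K562 (GAPDH/GUSB reference) or A673 (PPIA reference) cells exposed 24 h to compound in 11 threefold steps from 10 uM, with DMSO ≤0.25%.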
On the technique in general: In qPCR the cycle at which signal appears reflects the starting amount.

Test [2] deals with HTT mRNA. The test is described as follows: RT-qPCR splicing assay, HTT canonical junction (CJ) and alternative junction (AJ) mRNA. Type of test: cell-based, human. Conditions: Homo sapiens; for AC50: increase in HTT alternative junction (AJ) mRNA, read-out: HTT AJ AC50. The procedure, abridged:
as §1

The mark [3] stands for this setting: Table 5 panel, canonical junction qPCR, compound concentration having 50% response in CJ decrease, read-out: MYB IC50 (decrease in CJ mRNA levels).
Where [4] appears, read: decrease in MYB canonical junction (CJ) mRNA, RT-qPCR, read-out: MYB CJ IC50.
[5] abbreviates: decrease in HTT canonical junction (CJ) mRNA, RT-qPCR, read-out: HTT CJ IC50.
The mark [6] stands for this setting: Table 5 panel, canonical junction qPCR, compound concentration having 50% response in CJ decrease, read-out: HTT IC50 (decrease in CJ mRNA levels).

A word on the IC50: it is the concentration that inhibits the measured activity by half. A word on the AC50: it is the midpoint of the concentration-response curve, whichever way the signal moves. For `Cc1cn2cc(-c3ccc4c(=O)n(C5CCNCC5)cc(C)c4c3)cc(F)c2n1` [Compound 440, 6-{8-fluoro-2-methylimidazo[1,2-a]pyridin-6-yl}-4-methyl-2-(piperidin-4-yl)isoquinolin-1-one], the half-inhibitory concentration (IC50) in test [1] (setting [3]) was less than 100 nM; in test [1] (setting [4]) it was less than 100 nM; in test [2] (setting [5]) it was 100 to 1000 nM; in test [2] (setting [6]), 100 to 1000 nM. For the same compound, the AC50 in test [1] (RT-qPCR) is less than 100 nM; in test [2] (RT-qPCR), 100 to 1000 nM.
`Cc1cn2cc(-c3ccc4c(=O)n(C5CCNC5)cc(C)c4c3)cc(F)c2n1` (stereo not drawn) [Compound 441, 6-{8-fluoro-2-methylimidazo[1,2-a]pyridin-6-yl}-4-methyl-2-(pyrrolidin-3-yl)isoquinolin-1-one]: the IC50 in test [1] (setting [3]) was 1000 to 10000 nM; in test [1] (setting [4]) it was 1000 to 10000 nM; in test [2] (setting [5]) it was greater than 10000 nM; in test [2] (setting [6]), greater than 10000 nM. Further, the half-maximal activity concentration (AC50) was 1000 to 10000 nM in test [1] (RT-qPCR) and greater than 10000 nM in test [2] (RT-qPCR).
As to `Cc1cn2cc(-c3ccc4c(=O)n(C5CCNC5)cc(C)c4c3)cc(C#N)c2n1` (stereo not drawn) [Compound 442, 2-methyl-6-[4-methyl-1-oxo-2-(pyrrolidin-3-yl)isoquinolin-6-yl]imidazo[1,2-a]pyridine-8-carbonitrile], the 50% inhibitory concentration (IC50) in test [1] (setting [3]), in test [1] (setting [4]), in test [2] (setting [5]) and in test [2] (setting [6]) was greater than 10000 nM each time. For the same compound, the concentration at half-maximal activity (AC50) in test [1] (RT-qPCR) and in test [2] (RT-qPCR) was greater than 10000 nM throughout.
`Cc1cn2nc(-c3ccc4c(=O)n([C@H]5CCNC6(CC6)C5)ccc4c3)cc(C)c2n1` [Compound 445]: the IC50 in test [1] (setting [3]), in test [1] (setting [4]), in test [2] (setting [5]) and in test [2] (setting [6]) was less than 100 nM in each case. The AC50 in test [1] (RT-qPCR) and in test [2] (RT-qPCR) was less than 100 nM throughout.
Take `Cc1cn2nc(-c3cc(F)c4c(=O)n([C@@H]5CCNC6(CC6)C5)ncc4c3)cc(C)c2n1` [Compound 446]: the concentration for half-maximal inhibition (IC50) in test [1] (setting [3]), in test [1] (setting [4]), in test [2] (setting [5]) and in test [2] (setting [6]) was less than 100 nM in each case. The concentration at half-maximal activity (AC50) in test [1] (RT-qPCR) and in test [2] (RT-qPCR) was less than 100 nM each time.
As for `Cc1cn2nc(-c3cc(F)c4c(=O)n([C@H]5CCNC6(CC6)C5)ncc4c3)cc(C)c2n1` [Compound 447], the IC50 in test [1] (setting [3]), in test [1] (setting [4]), in test [2] (setting [5]) and in test [2] (setting [6]) was less than 100 nM throughout. In addition, the half-maximal activity concentration (AC50) in test [1] (RT-qPCR) and in test [2] (RT-qPCR) was less than 100 nM each time.
On to `Cc1cn2nc(-c3cc4ccn(C5CCNCC5)c(=O)c4cc3O)cc(C)c2n1` [Compound 448, 6-{2,8-dimethylimidazo[1,2-b]pyridazin-6-yl}-7-hydroxy-2-(piperidin-4-yl)isoquinolin-1-one], for which the IC50 in test [1] (setting [3]), in test [1] (setting [4]), in test [2] (setting [5]) and in test [2] (setting [6]) was less than 100 nM in each case. Moreover, the AC50 in test [1] (RT-qPCR) and in test [2] (RT-qPCR) was less than 100 nM each time.
With `COc1cc2c(=O)n(C3CCNCC3)ccc2cc1-c1cc(C)c2nc(C)cn2n1` [Compound 449, 6-{2,8-dimethylimidazo[1,2-b]pyridazin-6-yl}-7-methoxy-2-(piperidin-4-yl)isoquinolin-1-one], the IC50 in test [1] (setting [3]), in test [1] (setting [4]), in test [2] (setting [5]) and in test [2] (setting [6]) was greater than 10000 nM throughout. The half-maximal activity concentration (AC50) in test [1] (RT-qPCR) and in test [2] (RT-qPCR) was greater than 10000 nM in each case.
On to `Cc1cn2cc(-c3ccc4c(=O)n([C@@H]5CCNC5)cc(C)c4c3)cc(F)c2n1` [Compound 452, (R)-6-(8-fluoro-2-methylimidazo[1,2-a]pyridin-6-yl)-4-methyl-2-(pyrrolidin-3-yl)isoquinolin-1(2H)-one], for which the IC50 was 1000 to 10000 nM in test [1] (setting [3]), 1000 to 10000 nM in test [1] (setting [4]), greater than 10000 nM in test [2] (setting [5]) and greater than 10000 nM in test [2] (setting [6]). Also, the half-maximal activity concentration (AC50) was 1000 to 10000 nM in test [1] (RT-qPCR) and greater than 10000 nM in test [2] (RT-qPCR).
With `Cc1cn2c(n1)CCC(c1ccc3c(=O)n(C4CCNCC4)ccc3c1)C2` (stereo not drawn) [Compound 453, 6-{2-methyl-5H,6H,7H,8H-imidazo[1,2-a]pyridin-6-yl}-2-(piperidin-4-yl)isoquinolin-1-one], the IC50 in test [1] (setting [3]), in test [1] (setting [4]), in test [2] (setting [5]) and in test [2] (setting [6]) was greater than 10000 nM each time. The concentration at half-maximal activity (AC50) in test [1] (RT-qPCR) and in test [2] (RT-qPCR) was greater than 10000 nM each time.
For the compound `Cc1cn2cc(-n3ccc4cc(N5C[C@@H](C)N[C@@H](C)C5)ccc4c3=O)nc(C)c2n1` [Compound 454, 2-{2,8-dimethylimidazo[1,2-a]pyrazin-6-yl}-6-[(3R,5S)-3,5-dimethylpiperazin-1-yl]isoquinolin-1-one], the IC50 in test [1] (setting [3]), in test [1] (setting [4]), in test [2] (setting [5]) and in test [2] (setting [6]) was greater than 10000 nM each time. Further, the AC50 in test [1] (RT-qPCR) and in test [2] (RT-qPCR) was greater than 10000 nM each time.
Regarding `Cc1cn2cc(-c3ccc4c(=O)n([C@H]5CCNC5)cc(C)c4c3)cc(C#N)c2n1` [Compound 456, (S)-2-methyl-6-(4-methyl-1-oxo-2-(pyrrolidin-3-yl)-1,2-dihydroisoquinolin-6-yl)imidazo[1,2-a]pyridine-8-carbonitrile], the half-maximal inhibitory concentration (IC50) in test [1] (setting [3]), in test [1] (setting [4]), in test [2] (setting [5]) and in test [2] (setting [6]) was greater than 10000 nM in each case. For the same compound, the AC50 in test [1] (RT-qPCR) and in test [2] (RT-qPCR) was greater than 10000 nM throughout.
For the compound `Cc1cn2cc(-c3cc(F)c4c(=O)n(C5CCNCC5)cc(C)c4c3)cc(F)c2n1` [Compound 461, 8-fluoro-6-{8-fluoro-2-methylimidazo[1,2-a]pyridin-6-yl}-4-methyl-2-(piperidin-4-yl)isoquinolin-1-one], the IC50 was less than 100 nM in test [1] (setting [3]), less than 100 nM in test [1] (setting [4]), 100 to 1000 nM in test [2] (setting [5]) and 100 to 1000 nM in test [2] (setting [6]). The AC50 was less than 100 nM in test [1] (RT-qPCR) and 100 to 1000 nM in test [2] (RT-qPCR).
Turning to `Cc1cn2nc(-c3cc(O)c4c(=O)n(C5CCNC5)cc(C)c4c3)cc(C)c2n1` (stereo not drawn) [Compound 462], the IC50 in test [1] (setting [3]), in test [1] (setting [4]), in test [2] (setting [5]) and in test [2] (setting [6]) was 1000 to 10000 nM in each case. Also, the AC50 in test [1] (RT-qPCR) and in test [2] (RT-qPCR) was 1000 to 10000 nM in each case.
For `Cn1cc2c(n1)CCN(c1ccc3c(=O)n(C4CCNCC4)ccc3c1)C2` [Compound 509, 6-{2-methyl-4H,6H,7H-pyrazolo[4,3-c]pyridin-5-yl}-2-(piperidin-4-yl)isoquinolin-1-one], the IC50 in test [1] (setting [3]), in test [1] (setting [4]), in test [2] (setting [5]) and in test [2] (setting [6]) was greater than 10000 nM in each case. The half-maximal activity concentration (AC50) in test [1] (RT-qPCR) and in test [2] (RT-qPCR) was greater than 10000 nM each time.
With `Cc1cn2cc(-c3ccc4c(=O)n(C5CCNC6(CC6)C5)ncc4c3)cc(Cl)c2n1` (stereo not drawn) [Compound 510], the IC50 in test [1] (setting [3]) lay in the range of 1000 to 10000 nM; in test [1] (setting [4]) it was 1000 to 10000 nM; in test [2] (setting [5]), 1000 to 10000 nM; in test [2] (setting [6]) it was 100 to 1000 nM. Further, the values for the AC50 in test [1] (RT-qPCR) and in test [2] (RT-qPCR) were 1000 to 10000 nM and 100 to 1000 nM, respectively.
As to `Cn1cc2nc(-c3ccc4c(=O)n(C5CCNC6(CC6)C5)ncc4c3)ccc2n1` (stereo not drawn) [Compound 511], the half-maximal inhibitory concentration (IC50) in test [1] (setting [3]), in test [1] (setting [4]), in test [2] (setting [5]) and in test [2] (setting [6]) was 100 to 1000 nM in each case. Also, the concentration at half-maximal activity (AC50) in test [1] (RT-qPCR) and in test [2] (RT-qPCR) was 100 to 1000 nM throughout.
